From PubChem BioAssay (NCI)
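Test compounds were applied to cells in 96-well plates for 48 hours at 5 doses. TGI: concentration producing complete growth inhibition.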

Columns and labels:
Test in all cases: inhibition of tumour cell growth, NCI panel, 48 h
[1] = system: CAKI-1 renal
[2] = system: IGROV1 ovarian
[3] = system: SNB-78 CNS
[4] = system: KM20L2 colon
[5] = system: SW-620 colon
[6] = system: SN12C renal
[7] = system: SK-OV-3 ovarian
[8] = system: HCT-116 colon
[9] = system: HT29 colon
[10] = system: SK-MEL-2 melanoma
[11] = system: HCC-2998 colon
[12] = system: HOP-92 NSCLC
[13] = system: U251 CNS
[14] = system: SK-MEL-28 melanoma
[15] = system: SF-295 CNS
[16] = system: SF-268 CNS
[17] = system: NCI-H522 lung
[18] = system: ACHN renal
[19] = system: LXFL 529 NSCLC
[20] = system: SNB-19 CNS
[21] = system: LOX IMVI melanoma
[22] = system: KM12 colon
[23] = system: OVCAR-5 ovarian
[24] = system: K-562 leukemia
[25] = system: COLO 205 colon
[26] = system: NCI-H23 lung
[27] = system: EKVX NSCLC
[28] = system: 786-0 renal
[29] = system: SNB-75 CNS
[30] = system: A498 renal
[31] = system: OVCAR-4 ovarian
[32] = system: SF-539 CNS
[33] = system: TK-10 renal
[34] = system: HCT-15 colon
[35] = system: OVCAR-3 ovarian
[36] = system: DMS 273 small cell lung
[37] = system: UACC-257 melanoma
[38] = system: RXF 393 renal
[39] = system: RPMI-8226 leukemia
[40] = system: HOP-18 NSCLC
[41] = system: SK-MEL-5 melanoma
[42] = system: OVCAR-8 ovarian
[43] = system: NCI-H226 lung
[44] = system: UO-31 renal
[45] = system: NCI-H460 lung
[46] = system: MALME-3M melanoma
[47] = system: M19-MEL melanoma
[48] = system: M14 melanoma
[49] = system: HOP-62 NSCLC
[50] = system: DMS 114 small cell lung
[51] = system: UACC-62 melanoma
[52] = system: MOLT-4 leukemia
[53] = system: A549 NSCLC
[54] = system: DLD-1 colon
[55] = system: CCRF-CEM leukemia

Measured: TGI

NC(=S)N/N=C1\C(=O)N(CCc2ccccc2)C(=O)C1C(=O)NCCc1ccccc1 (stereo not given)
> 100 µM: [1] | [2] | [3] | [4] | [5] | [6] | [7] | [8] | [9] | [10] | [11] | [12] | [13] | [14] | [15] | [16] | [17] | [18] | [19] | [20] | [21] | [22] | [23] | [24] | [25] | [26] | [27] | [28] | [29] | [30] | [31] | [32] | [33] | [34] | [35] | [36] | [37] | [38] | [39] | [40] | [41] | [42] | [43] | [44] | [45] | [46] | [47] | [48] | [49] | [50] | [51]

C/C1=N\NC(=O)c2ccccc2C(=O)N/N=C(\C)c2cccc1n2.O=[N+]([O-])[O-].[Zn+2]
> 100 µM: [1] | [2] | [3] | [4] | [5] | [6] | [7] | [8] | [9] | [10] | [11] | [13] | [14] | [15] | [16] | [17] | [18] | [19] | [20] | [52] | [22] | [53] | [23] | [24] | [25] | [26] | [27] | [28] | [29] | [30] | [31] | [32] | [33] | [54] | [34] | [35] | [37] | [39] | [55] | [40] | [41] | [42] | [44] | [45] | [46] | [48] | [49] | [50] | [51]
